Assay results taken from US20180179177A1, “N-ACYLIMINO HETEROCYCLIC COMPOUNDS FOR CONTROLLING INVERTEBRATE PESTS” (BASF SE, priority 2014, published 2018).

Experiments:
Assay type in all cases: in vivo
[1] = system: boll weevil (Anthonomus grandis); assay: Boll weevil control, insect diet in 96-well microtiter plates; conditions: 120 h, egg and larval mortality after 5 days, read-out: mortality in comparison with untreated controls
Method: B.1 Boll Weevil (Anthonomus grandis)
For evaluating control of boll weevil (Anthonomus grandis) the test unit consisted of 96-well-microtiter plates containing an insect diet and 5-10 A. grandis eggs.
(§1) The compounds were formulated using a solution containing 75% v/v water and 25% v/v DMSO. Different concentrations of formulated compounds were sprayed onto the insect diet at 5 μl, using a custom built micro atomizer, at two replications.
After application, microtiter plates were incubated at about 25±10C and about 75±5% relative humidity for 5 days. Egg and larval mortality was then visually assessed.

[2] = system: vetch aphid (Megoura viciae); assay: Vetch aphid control, contact or systemic, broad bean leaf disks; conditions: foliar, 120 h, aphid mortality after 5 days, read-out: mortality in comparison with untreated controls
Method: B.3 Vetch Aphid (Megoura viciae)
For evaluating control of vetch aphid (Megoura viciae) through contact or systemic means the test unit consisted of 24-well-microtiter plates containing broad bean leaf disks.
The compounds were formulated using a solution containing 75% v/v water and 25% v/v DMSO. Different concentrations of formulated compounds were sprayed onto the leaf disks at 2.5 μl, using a custom built micro atomizer, at two replications.
After application, the leaf disks were air-dried and 5-8 adult aphids were placed on the leaf disks inside the microtiter plate wells. The aphids were then allowed to suck on the treated leaf disks and were incubated at about 23±10C and about 50±5% relative humidity for 5 days. Aphid mortality and fecundity was then visually assessed.

[3] = system: Green soldier stink bug (Nezara viridula); assay: Green soldier stink bug test, sprayed soybean pods; conditions: 120 h, after 5 days, 3rd instar, read-out: mortality in comparison with untreated controls
Method: B.8 Green Soldier Stink Bug (Nezara viridula)
The active compound is dissolved at the desired concentration in a mixture of 1:1 (vol:vol) distilled water:aceteone. Surfactant (Kinetic HV) is added at a rate of 0.01% (vol/vol). The test solution is prepared at the day of use.
Soybean pods were placed in microwavable plastic cups lined with moist filter paper and inoculated with ten 3rd instar N. viridula. Using a hand atomizer, approximately 2 ml solution is sprayed into each cup. Treated cups were kept at about 28-29° C. and relative humidity of about 50-60%. Percent mortality was recorded after 5 days.

[4] = system: Silverleaf whitefly (Bemisia argentifolii); assay: Silverleaf whitefly test, sprayed cotton plants; conditions: 72 h, 3 days after treatment, adults, read-out: mortality in comparison with untreated controls
Source text: B.12 Silverleaf Whitefly (Bemisia argentifolii)
(§2) The active compounds are formulated in cyclohexanone as a 10,000 ppm solution supplied in tubes. The tubes are inserted into an automated electrostatic sprayer equipped with an atomizing nozzle and they serve as stock solutions for which lower dilutions are made in 50% acetone:50% water (v/v). A nonionic surfactant (Kinetic®) is included in the solution at a volume of 0.01% (v/v).
Cotton plants at the cotyledon stage (one plant per pot) are sprayed by an automated electrostatic plant sprayer equipped with an atomizing spray nozzle. The plants are dried in the sprayer fume hood and then removed from the sprayer. Each pot is placed into a plastic cup and about 10 to 12 whitefly adults (approximately 3-5 days old) are introduced. The insects are collected using an aspirator and a nontoxic Tygon® tubing connected to a barrier pipette tip. The tip, containing the collected insects, is then gently inserted into the soil containing the treated plant, allowing insects to crawl out of the tip to reach the foliage for feeding. Cups are covered with a reusable screened lid. […] Mortality is assessed 3 days after treatment, compared to untreated control plants.

[5] = system: Diamond back moth (Plutella xylostella); assay: Diamond back moth test, dipped cabbage leaves; conditions: 72 hours after treatment, 3rd instar larvae, read-out: mortality in comparison with untreated controls
Method: B.10 Diamond Back Moth (Plutella xylostella)
The active compound is dissolved at the desired concentration in a mixture of 1:1 (vol:vol) distilled water:aceteone. Surfactant (Alkamuls® EL 620) is added at a rate of 0.1% (vol/vol). The test solution is prepared at the day of use.
Leaves of cabbage were dipped in test solution and air-dried. Treated leaves were placed in petri dish eslined with moist filter paper and inoculated with ten 3rd instar larvae. Mortality was recorded 72 hours after treatment. Feeding damages were also recorded using a scale of 0-100%.

[6] = system: Mediterranean fruitfly (Ceratitis capitata); assay: Mediterranean fruitfly control, insect diet in microtiter plates; conditions: 120 h, egg and larval mortality after 5 days, read-out: mortality in comparison with untreated controls
Method: B.2 Mediterranean Fruitfly (Ceratitis capitata)
as §1, with “For evaluating control of Mediterranean fruitfly (Ceratitis capitata) the test unit consisted of microtiter plates containing an insect diet and 50-80 C. capitata eggs. The” for “The”
After application, microtiter plates were incubated at about 28±1° C. and about 80±5% relative humidity for 5 days. Egg and larval mortality was then visually assessed.

[7] = system: Orchid thrips (Dichromothrips corbetti); assay: Orchid thrips floral-immersion test; conditions: 72 hours after treatment, read-out: mortality in comparison with untreated controls
Method: B.5 Orchid Thrips (Dichromothrips Corbetti)
Dichromothrips corbetti adults used for bioassay are obtained from a colony maintained continuously under laboratory conditions. For testing purposes, the test compound is diluted in a 1:1 mixture of acetone:water (vol:vol), plus 0.01% vol/vol Alkamuls® EL 620 surfactant.
Thrips potency of each compound is evaluated by using a floral-immersion technique. Plastic petri dishes are used as test arenas. All petals of individual, intact orchid flowers are dipped into treatment solution and allowed to dry. Treated flowers are placed into individual petri dishes along with about 20 adult thrips. The petri dishes are then covered with lids. All test arenas are held under continuous light and a temperature of about 28° C. for duration of the assay. After 3 days, the numbers of live thrips are counted on each flower, and along inner walls of each petri dish. The percent mortality is recorded 72 hours after treatment.

[8] = system: Cotton aphid (Aphis gossypih); assay: Cotton aphid test, sprayed potted plants; conditions: after 72 hours, read-out: mortality in comparison with untreated controls
Method: B.11 Cotton Aphid (Aphis gossypih)
(§3) The active compound is dissolved at the desired concentration in a mixture of 1:1 (vol:vol) distilled water:acetone. Surfactant (Alkamuls® EL 620) is added at a rate of 0.1% (vol/vol). The test solution is prepared at the day of use.
(§4) Potted cowpea plants were colonized with approximately 50-100 aphids of various stages by manually transferring a leaf tissue cut from infested plant 24 hours before application. Plants were sprayed after the pest population has been recorded. Treated plants are maintained on light carts at about 28° C. Percent mortality was assessed after 72 hours.

[9] = system: Southern armyworm (Spodoptera eridania); assay: Southern armyworm test, sprayed lima bean plants; conditions: 96 h, 4 days after treatment, larvae, read-out: mortality in comparison with untreated controls
Method: B.13 Southern Armyworm (Spodoptera eridania)
as §2, with “were” for “are”, “served” for “serve”, “was” for “is”
Lima bean plants (variety Sieva) were grown 2 plants to a pot and selected for treatment at the 1st true leaf stage. Test solutions were sprayed onto the foliage by an automated electrostatic plant sprayer equipped with an atomizing spray nozzle. The plants were dried in the sprayer fume hood and then removed from the sprayer. Each pot was placed into perforated plastic bags with a zip closure. About 10 to 11 armyworm larvae were placed into the bag and the bags zipped closed. Test plants were maintained in a growth room at about 250C and about 20-40% relative humidity for 4 days, avoiding direct exposure to fluorescent light (24 hour photoperiod) to prevent trapping of heat inside the bags. Mortality and reduced feeding were assessed 4 days after treatment, compared to untreated control plants.

[10] = system: Rice green leafhopper (Nephotettix virescens); assay: Rice green leafhopper test, sprayed rice seedlings; conditions: after 72 hours, read-out: mortality in comparison with untreated controls
Method: B.7 Rice Green Leafhopper (Nephotettix virescens)
(§5) Rice seedlings are cleaned and washed 24 hours before spraying. The active compounds are formulated in 50:50 acetone:water (vol:vol), and 0.1% vol/vol surfactant (EL 620) is added. Potted rice seedlings are sprayed with 5 ml test solution, air dried, placed in cages and inoculated with 10 adults. Treated rice plants are kept at about 28-29° C. and relative humidity of about 50-60%. Percent mortality is recorded after 72 hours.

[11] = system: green peach aphid (Myzus persicae); assay: Green peach aphid control, systemic, artificial diet under membrane; conditions: 72 h, aphid mortality after 3 days, read-out: mortality in comparison with untreated controls
Source text: B.4 Green Peach Aphid (Myzus persicae)
For evaluating control of green peach aphid (Myzuspersicae) through systemic means, the test unit consists of 96-well-microtiter plates containing liquid artificial diet under an artificial membrane.
The compounds are formulated using a solution containing 75% v/v water and 25% v/v DMSO. Different concentrations of formulated compounds are pipetted into the aphid diet, using a custom built pipetter, at two replications.
After application, 5-8 adult aphids are placed on the artificial membrane inside the microtiter plate wells. The aphids are then allowed to suck on the treated aphid diet and incubated at about 23±10C and about 50±5% relative humidity for 3 days. Aphid mortality and fecundity is then visually assessed.

[12] = system: Rice brown plant hopper (Nilaparvata lugens); assay: Rice brown plant hopper test, sprayed rice seedlings; conditions: after 72 hours, read-out: mortality in comparison with untreated controls
Method: B.9 Rice Brown Plant Hopper (Nilaparvata lugens)
as §5, with “compounds is” for “compounds are”, “acetone:water (vol:vol)” for “acetone:water (vol:vol),”, “620) was” for “620) is”

[13] = system: Cowpea aphid (Aphis craccivora); assay: Cowpea aphid test, sprayed potted cowpea plants; conditions: after 72 hours, read-out: mortality in comparison with untreated controls
Method: B.6 Cowpea Aphid (Aphis craccivora)
as §3
as §4, with “are” for “were”, “is” for “was”

| Structure (SMILES) | mortality at 2500 ppm [1] [%] | mortality at 2500 ppm [2] [%] | mortality at 500 ppm [3] [%] | mortality at 500 ppm [4] [%] | mortality at 500 ppm [5] [%] | mortality at 2500 ppm [6] [%] | mortality at 500 ppm [7] [%] | mortality at 500 ppm [8] [%] | mortality at 500 ppm [9] [%] | mortality at 500 ppm [10] [%] | mortality at 2500 ppm [11] [%] | mortality at 500 ppm [12] [%] | mortality at 500 ppm [13] [%] |
| --- | --- | --- | --- | --- | --- | --- | --- | --- | --- | --- | --- | --- | --- |
| O=C(C[N+](=O)[O-])/N=c1\ccccn1Cc1ccc(Cl)nc1 [Compound E1.4] | ≥ 75 | ≥ 75 | > 75 | ≥ 75 | > 75 | ≥ 75 | ≥ 75 | > 75 | ≥ 75 | ≥ 75 | ≥ 75 | ≥ 75 | ≥ 75 |
| O=C(/N=c1\ccccn1Cc1ccc(Cl)nc1)C1([N+](=O)[O-])CC1c1ccccc1 (stereo not drawn) [Compound E2.3] |  | ≥ 75 |  |  |  |  |  |  |  |  | ≥ 75 |  | ≥ 75 |
| CC(C)/C=C(/C(=O)/N=c1\ccccn1Cc1ccc(Cl)nc1)[N+](=O)[O-] [Compound E3.1] |  | ≥ 75 |  | ≥ 75 |  | ≥ 75 | ≥ 75 | > 75 |  | ≥ 75 | ≥ 75 |  | ≥ 75 |
